The source of these data is patent US20240425502A1, “BICYCLIC HETEROAROMATIC COMPOUNDS AND THEIR USE AS PEST CONTROL AGENTS” (PI INDUSTRIES LTD., priority 2021, published 2024).

Format in all cases: in vivo
In one experiment the test system is Bemisia tabaci. Description: Bemisia tabaci leaf dip test (brinjal leaves, whitefly adults). The settings on record: foliar, 72 h after release, dead and moribund combined, compared to untreated control, read-out: percent mortality. The method, then:
The leaf dip method was used for testing, wherein the required quantity of the compound was weighed and dissolved in a tube containing a solvent solution. The tube was put on a vortex at 2000 rpm for 90 min for proper mixing and then the mixture was diluted with a 0.01% Triton-X solution to the desired test concentration. Brinjal leaves were dipped in the compound solution for 10 seconds, shade dried for 20 min and then placed, with the abaxial side of the leaf up, on 4 ml of a 1% agar-agar solution in respective container caps. Known numbers of freshly emerged whitefly adults were collected, using a modified aspirator, and released into a perforated container in which the cap containing the treated leaf was placed. The containers were kept in a plant growth chamber at a temperature of 25° C. and a relative humidity of 70%. Observations on dead, moribund and alive adults were recorded 72 h after the release. Percent mortality was calculated by combining dead and moribund adults and comparing the result to the one of the untreated control. The compounds 32 53 58 79 80 81 82 84 87 88 89 94 95 96 101 102 103 104 105 106 107 108 109 112 113 114 115 116 117 118 119 120 123 124 125 126 127 130 135 138 139 140 144 145 147 150 154 156 158 159 164 167 168 169 170 171 188 189 191 198 199 200 201 202 206 207 208 209 210 213 216 223 224 225 227 228 231 232 233 234 235 236 238 242 243 244 246 and 247 recorded≥70 percent mortality @ 300 PPM.

For another experiment, the system named is Myzus persicae. Briefly: Myzus persicae leaf dip test (capsicum leaves, third instar nymphs). The settings on record: foliar, 72 h after release, dead and moribund combined, compared to untreated control, read-out: percent mortality.
The test system of the next experiment is Nilaparvata lugens. Briefly: Nilaparvata lugens seedling dip test (paddy seedlings, third instar nymphs). The settings on record: 72 h after release, dead and moribund combined, compared to untreated control, read-out: percent mortality.

What is called mortality is the share of the test organisms that died. For the molecule `Cc1ccc(-n2c(=O)nc3n(Cc4cnc(Cl)nc4)cccc-3c2=O)cc1` [Compound 144, 8-((2-chloropyrimidin-5-yl)methyl)-3-(p-tolyl)pyrido[2,3-d]pyrimidine-2,4(3H,8H)-dione], in the experiment on Bemisia tabaci, the mortality at 300 ppm is no less than 70%. Regarding `O=c1nc2n(Cc3ccc(C(F)(F)F)nc3)cccc-2c(=O)n1-c1ccc(F)cc1` [Compound 156, 3-(4-fluorophenyl)-8-((6-(trifluoromethyl)pyridin-3-yl)methyl)pyrido[2,3-d]pyrimidine-2,4(3H,8H)-dione], the mortality at 300 ppm in the experiment with Bemisia tabaci is no less than 70%. Turning to `O=c1nc2n(Cc3ccc(C(F)(F)F)nc3)cccc-2c(=O)n1-c1ccc(Cl)cc1` [Compound 145, 3-(4-chlorophenyl)-8-((6-(trifluoromethyl)pyridin-3-yl)methyl)pyrido[2,3-d]pyrimidine-2,4(3H,8H)-dione], the mortality at 300 ppm in the experiment on Bemisia tabaci was no less than 70%.

Consider `O=c1nc2n(Cc3cnc(Cl)nc3)cccc-2c(=O)n1-c1ccc(OC(F)(F)F)c(Cl)c1` [Compound 227, 3-(3-chloro-4-(trifluoromethoxy)phenyl)-8-((2-chloropyrimidin-5-yl)methyl)pyrido[2,3-d]pyrimidine-2,4(3H,8H)-dione], for which, in the experiment with Bemisia tabaci, the mortality at 300 ppm was no less than 70%.

Turning to `O=c1nc2n(Cc3cnc(Cl)nc3)cccc-2c(=O)n1-c1ccc(Cl)c(Cl)c1` [Compound 158, 8-((2-chloropyrimidin-5-yl)methyl)-3-(3,4-dichlorophenyl)pyrido[2,3-d]pyrimidine-2,4(3H,8H)-dione], in the experiment on Bemisia tabaci, the mortality at 300 ppm was no less than 70%. On to `O=c1nc2n(Cc3cnc(Cl)s3)cccc-2c(=O)n1-c1cc(F)cc(F)c1` [Compound 141, 8-((2-chlorothiazol-5-yl)methyl)-3-(3,5-difluorophenyl)pyrido[2,3-d]pyrimidine-2,4(3H,8H)-dione], for which the mortality at 300 ppm in the experiment on Myzus persicae and in the experiment with Nilaparvata lugens was no less than 70% in each case.

Regarding `O=c1nc2n(Cc3cnc(Cl)s3)cccc-2c(=O)n1-c1cccc(C(F)F)c1` [Compound 187, 8-((2-chlorothiazol-5-yl)methyl)-3-(3-(difluoromethyl)phenyl)pyrido[2,3-d]pyrimidine-2,4(3H,8H)-dione], the mortality at 300 ppm in the experiment with Myzus persicae and in the experiment on Nilaparvata lugens was no less than 70% in each case. `O=c1nc2n(Cc3cnc(Cl)nc3)cccc-2c(=O)n1-c1cccc(F)c1F` [Compound 205, 8-((2-chloropyrimidin-5-yl)methyl)-3-(2,3-difluorophenyl)pyrido[2,3-d]pyrimidine-2,4(3H,8H)-dione]: the mortality at 300 ppm in the experiment on Myzus persicae and in the experiment with Nilaparvata lugens was no less than 70% throughout.

Consider `O=c1nc2n(Cc3cnc(Cl)s3)cccc-2c(=O)n1-c1cccc(OC(F)F)c1` [Compound 151, 8-((2-chlorothiazol-5-yl)methyl)-3-(3-(difluoromethoxy)phenyl)pyrido[2,3-d]pyrimidine-2,4(3H,8H)-dione], for which the mortality at 300 ppm in the experiment with Myzus persicae and in the experiment with Nilaparvata lugens was no less than 70% each time.

With `O=c1nc2n(Cc3cnc(Cl)nc3)cccc-2c(=O)n1-c1cccc(C(F)F)c1` [Compound 203, 8-((2-chloropyrimidin-5-yl)methyl)-3-(3-(difluoromethyl)phenyl)pyrido[2,3-d]pyrimidine-2,4(3H,8H)-dione], the mortality at 300 ppm in the experiment on Myzus persicae and with Nilaparvata lugens was no less than 70% in each case. Regarding `COc1cc(-n2c(=O)nc3n(Cc4cnc(Cl)s4)cccc-3c2=O)ccc1Cl` [Compound 167, 3-(4-chloro-3-methoxyphenyl)-8-((2-chlorothiazol-5-yl)methyl)pyrido[2,3-d]pyrimidine-2,4(3H,8H)-dione], in the experiment on Bemisia tabaci, the mortality at 300 ppm was no less than 70%. Take `COc1ccccc1-n1c(=O)nc2n(Cc3cnc(Cl)s3)cccc-2c1=O` [Compound 73, 8-((2-chlorothiazol-5-yl)methyl)-3-(2-methoxyphenyl)pyrido[2,3-d]pyrimidine-2,4(3H,8H)-dione]: the mortality at 300 ppm with Myzus persicae and in the experiment with Nilaparvata lugens was no less than 70% each time.
